The values that follow come from publication PMC6792352, “Limited Chemical Structural Diversity Found to Modulate Thyroid Hormone Receptor in the Tox21 Chemical Library” (Environmental Health Perspectives, 2019).

The nature of the data set: in vitro. Conditions: rat, gh3-tre-luc cells.

Structures can show the parent of a compound that is named as a salt. Non-standard residues stand in square brackets, D forms with d. Residues, ends and D or L forms follow the SMILES beside them. *: point of attachment. Sta = CC(C)C[C@H](N)[C@@H](O)CC(=O)O; Isovaleryl = CC(C)CC(=O)*

Take `C[C@]12CCC(=O)C[C@@H]1CC[C@@H]1[C@@H]2CC[C@@]2(C)[C@H]1CC[C@]2(C)O` [Mestanolone]: the CC50 (usually the concentration giving 50% cytotoxicity) at 24 h (AC50 (uM) modified / 1000, Tox21_110001=Tox21_113424, viability, 1 nM T3 present, 24 h) was above 50 µM.
In the case of `CCCC[N+](C)(CCCC)CCCC` [N,N-Dibutyl-N-methylbutan-1-aminium chloride], the CC50 at 24 h (AC50 (uM) modified / 1000) is above 90 µM.
`CCC(Cl)CCl` (stereo not drawn) [1,2-Dichlorobutane] showed a CC50 at 24 h (AC50 (uM) modified / 1000, Tox21_110001=Tox21_200147, viability, 1 nM T3 present, 24 h) above 90 µM.
In turn, `CCC(COC(=O)CCS)(COC(=O)CCS)COC(=O)CCS` [2,2-Bis{[(3-sulfanylpropanoyl)oxy]methyl}butyl 3-sulfanylpropanoate] displayed a 50% cytotoxic concentration (CC50) at 24 h (AC50 (uM) modified / 1000) above 90 µM.
The same measure, in the same setting: in the case of `CN1C(=O)C[C@@H](C(=O)N[C@@H](Cc2c[nH]cn2)C(=O)N2CCC[C@H]2C(N)=O)NC1=O` [Taltirelin] it was above 50 µM; in that of `CCOc1ccc(NS(=O)(=O)c2ccc(N)cc2)nn1` [Sulfaethoxypyridazine], above 50 µM; in that of `COC(=O)CCCCCCCCC(=O)OC` [Dimethyl decanedioate], above 90 µM.
For `CCCCCCCCCCCCCCCCI` [1-iodohexadecane], the CC50 at 24 h (AC50 (uM) modified / 1000) is above 20 µM.
Still for that read-out and setting: under `CC(=O)CC(=O)N(C)C` [N,N-Dimethylacetoacetamide] stands above 90 µM; under `O=c1[nH]cnc2nc[nH]c12` [Hypoxanthine], above 50 µM; under `CCCCCCCCCCCCC1CO1` (stereo not drawn) [1,2-Epoxytetradecane], above 90 µM.
Take `O=C1c2ccccc2Cc2ccccc21` [Anthrone]: under “AC50 (uM) modified / 1000”, the 50% cytotoxic concentration (CC50) at 24 h amounted to 13.5 µM.
Still for that read-out and setting: under `CN[C@@H]1[C@H](O[C@H]2[C@H](O[C@H]3[C@H](O)[C@@H](O)[C@H](NC(=N)N)[C@@H](O)[C@@H]3NC(=N)N)O[C@@H](C)[C@]2(O)CO)O[C@@H](CO)[C@H](O)[C@H]1O` [Dihydrostreptomycin sulfate] stands above 50 µM; under `C[C@@H](O)[C@H]1C(=O)N2C(C(=O)[O-])=C(SC3Cn4cnc[n+]4C3)[C@H](C)[C@H]12` (stereo partly drawn) [Biapenem], above 50 µM.
Take `C[C@@H](Cc1ccccc1)N(C)C` [Dimetamfetamine]: the half-maximal cytotoxic concentration (CC50) at 24 h (AC50 (uM) modified / 1000, Tox21_110001=Tox21_111807, viability, 1 nM T3 present, 24 h) is above 50 µM.
In turn, `COc1cc(C(=O)OCCCN2CCCN(CCCOC(=O)c3cc(OC)c(OC)c(OC)c3)CC2)cc(OC)c1OC` [Dilazep] yielded a CC50 at 24 h (AC50 (uM) modified / 1000) of 7.82 µM.
On the same count and under the same terms, in the case of `CCC(=O)O[C@H]1[C@H](O[C@@H]2[C@@H](C)[C@H](O[C@H]3C[C@@](C)(OC)[C@@H](O)[C@H](C)O3)[C@@H](C)C(=O)O[C@H](CC)[C@@](C)(O)[C@H](O)[C@@H](C)C(=O)[C@H](C)C[C@@]2(C)O)O[C@H](C)C[C@@H]1N(C)C` [Erythromycin propionate] it was 13.1 µM; in that of `C[CH2][Ge]([Cl])([CH2]C)[CH2]C` [Triethylgermanium chloride], above 90 µM.
In turn, `CCC(C)(C)CC` [Pentane,3,3-dimethyl-] registered a CC50 at 24 h (AC50 (uM) modified / 1000) above 100 µM.
With `CC(C(=O)O)c1cccc(C(=O)c2ccccc2)c1` (stereo not drawn) [Ketoprofen], the CC50 at 24 h (AC50 (uM) modified / 1000) was above 90 µM.
Still for that read-out and setting: in the case of `CN(C)c1ccc(C(=C2C=CC(=[N+](C)C)C=C2)c2c(O)c(S(=O)(=O)[O-])cc3cc(S(=O)(=O)O)ccc23)cc1` [Acid green 50] it was 30.6 µM; in that of `CC(C)=CCCC(C)CC(=O)O` (stereo not drawn) [Citronellic acid], above 90 µM.
Still for that read-out and setting: in the case of `CC(=O)c1cc(C(C)(C)C)cc2c1CCC2(C)C` [1-(6-tert-Butyl-1,1-dimethyl-2,3-dihydro-1H-inden-4-yl)ethanone] it was 40.7 µM.
The same measure, in the same setting: under `CCCCc1nc(Cl)c(CO)n1Cc1ccc(-c2ccccc2-c2nn[nH]n2)cc1` [Losartan] stands above 50 µM.
Consider `Nc1ccc(-c2ccc(N)cc2)cc1` [Benzidine], for which the CC50 at 24 h (AC50 (uM) modified / 1000, Tox21_110001=Tox21_202359, viability, 1 nM T3 present, 24 h) was above 90 µM.
`O=C=NCC1CCCC(CN=C=O)C1` (stereo not drawn) [1,3-Bis(isocyanatomethyl)cyclohexane]: the CC50 at 24 h (AC50 (uM) modified / 1000) is above 90 µM.
`CN1CCC(O)(c2ccc(F)cc2)C(C(=O)c2ccc(F)cc2)C1` (stereo not drawn) [Flazalone] showed a CC50 at 24 h (AC50 (uM) modified / 1000) of 19.6 µM.
On the same count and under the same terms, under `N[C@@H](Cc1c[nH]c2ccccc12)C(=O)O` [l-Tryptophan] stands above 90 µM; under `OC1CCC(C2CCCCC2)CC1` (stereo not drawn) [4-Cyclohexylcyclohexanol], above 90 µM; under `CCSC(=O)Cl`, above 100 µM.
On the same count and under the same terms, in the case of `CCC(C)(Oc1ccc(C2(c3ccc(OC(C)(CC)C(=O)O)cc3)CCCCC2)cc1)C(=O)O` (stereo not drawn) [Clinofibrate] it was above 50 µM.
Consider `C#CCOC(=O)/C=C(C)/C=C/CC(C)CCCC(C)C` (stereo not drawn) [Kinoprene], for which, for the setting “AC50 (uM) modified / 1000, Tox21_110001=Tox21_302008, viability, 1 nM T3 present, 24 h”, the half-maximal cytotoxic concentration (CC50) at 24 h was above 90 µM.
For the compound `CCOC(=O)c1ccc(C2CCC(NC[C@H](O)COc3ccc(O)c(NS(C)(=O)=O)c3)CC2)cc1` (stereo partly drawn) [SAR 150640], half-maximal cytotoxicity (AC50 (uM) modified / 1000) (CC50 at 24 h) was put at 34.8 µM.
As to `CCNC(=O)/C=C/c1cccc(Br)c1` [Cinromide], where the note is “AC50 (uM) modified / 1000”, the CC50 at 24 h was above 50 µM.
For `Cc1ccc(S(=O)(=O)NC(=O)NC2CCCCC2)cc1` [Glycyclamide], under “AC50 (uM) modified / 1000”, the CC50 at 24 h is above 50 µM.
As to `c1ccc2c(c1)Sc1ccccc1N2C[C@@H]1CN2CCC1CC2` [Levomequitazine], the CC50 at 24 h (AC50 (uM) modified / 1000) was above 50 µM.
For `Cl/C=C\Cl` [(Z)-1,2-Dichloroethylene], the CC50 at 24 h (AC50 (uM) modified / 1000, Tox21_110001=Tox21_200003, viability, 1 nM T3 present, 24 h) was above 90 µM.
Under “AC50 (uM) modified / 1000”, `O=C1C(c2[nH]c3ccc(S(=O)(=O)O)cc3c2O)=Nc2ccc(S(=O)(=O)O)cc21` [C.I. Acid Blue 74] showed a CC50 at 24 h above 90 µM.
In turn, `COC(=O)c1c(C(F)F)nc(C(F)(F)F)c(C2=NCCS2)c1CC(C)C` [Thiazopyr] had a CC50 at 24 h (AC50 (uM) modified / 1000, Tox21_110001=Tox21_300822, viability, 1 nM T3 present, 24 h) above 90 µM.
For `O=C(Oc1ccccc1)c1ccccc1C(=O)Oc1ccccc1` [Diphenyl phthalate], the CC50 at 24 h (AC50 (uM) modified / 1000) is 53.7 µM.
On the same count and under the same terms, in the case of `Nc1cc(Cl)c(O)c(Cl)c1` [4-Amino-2,6-dichlorophenol] it was 83.2 µM; in that of `OC[C@@H](O)[C@@H](O)CO` [Erythritol], above 90 µM; in that of `Nc1c(Cl)cc(Cl)cc1[N+](=O)[O-]` [2,4-Dichloro-6-nitroaniline], above 90 µM.
Still for that read-out and setting: in the case of `Clc1ccccc1CN1CCc2sccc2C1` [Ticlopidine] it was 21.6 µM; in that of `CNC(=O)[C@H]1O[C@@H](n2cnc3c(NCc4cc(Cl)ccc4OCc4cc(C)no4)ncnc32)[C@H](O)[C@@H]1N` [CP-608039], above 90 µM.
On to `OCc1ccccn1` [Piconol], for which, under “AC50 (uM) modified / 1000”, the CC50 at 24 h was above 50 µM.
Turning to `C=C(C)C(=O)OCC(CC)CCCC` (stereo not drawn) [2-Ethylhexyl methacrylate], the CC50 at 24 h (AC50 (uM) modified / 1000) is above 90 µM.
In turn, `CCCCC(CC)COC(=O)CCCCCCCCC(=O)OCC(CC)CCCC` (stereo not drawn) [Bis(2-ethylhexyl) decanedioate] registered a CC50 at 24 h (AC50 (uM) modified / 1000) above 90 µM.
For the compound `CC(C)CC(=O)N[C@H](C(=O)N[C@H](C(=O)N[C@@H](CC(C)C)[C@@H](O)CC(=O)N[C@@H](C)C(=O)N[C@@H](CC(C)C)[C@@H](O)CC(=O)O)C(C)C)C(C)C` [Pepstatin] (Isovaleryl-VV[Sta]A[Sta]-OH), under “AC50 (uM) modified / 1000”, the cytotoxic concentration (CC50) at 24 h was above 50 µM.
On the same count and under the same terms, under `COc1ccc(/C=C/C(=O)Nc2ccccc2C(=O)O)cc1OC` [Tranilast] stands above 50 µM.
Compound `Cc1ccccc1CCO` [2-Methylphenethyl alcohol] had a CC50 at 24 h (AC50 (uM) modified / 1000) above 90 µM.
On the same count and under the same terms, under `CC(=O)N[C@H]1C(O)O[C@H](CO)[C@H](O)[C@@H]1O` (stereo partly drawn) [N-Acetylgalactosamine] stands above 50 µM; under `Cc1ccc(Cl)cc1` [4-Chlorotoluene], above 100 µM.
For `CC(=O)Nc1ccc2c(c1)Cc1ccccc1-2` [2-Acetylaminofluorene], under “AC50 (uM) modified / 1000, Tox21_110001=Tox21_200830, viability, 1 nM T3 present, 24 h”, the CC50 at 24 h is above 90 µM.
`C=CCOC(=O)c1ccccc1C(=O)OCC=C` [Diallyl phthalate]: the CC50 at 24 h (AC50 (uM) modified / 1000) is above 90 µM.
For the compound `O=c1n(Cl)c(=O)n(Cl)c(=O)n1Cl` [Symclosene], the CC50 at 24 h is, setting by setting: (AC50 (uM) modified / 1000, Tox21_110001=Tox21_112103, viability, 1 nM T3 present, 24 h) above 50 µM; (AC50 (uM) modified / 1000, Tox21_110001=Tox21_300858, viability, 1 nM T3 present, 24 h) above 90 µM.
The compound `CC(C)(O)c1coc(S(=O)(=O)NC(=O)Nc2c3c(cc4c2CCC4)CCC3)c1` [CP-456773] gave a CC50 at 24 h (AC50 (uM) modified / 1000) above 90 µM.
On the same count and under the same terms, under `CCOc1ccccc1N` [2-Ethoxyaniline] stands above 90 µM; under `O=C(O)/C=C(\CC(=O)O)C(=O)O` [trans-Aconitic acid], above 50 µM.
On the same count and under the same terms, in the case of `OCC(O)[C@@H](O)[C@H](O)[C@H](O)CO[C@H]1O[C@H](CO)[C@@H](O)[C@H](O)[C@H]1O` (stereo partly drawn) [Isomalt] it was above 90 µM; in that of `Clc1cccc(C(c2ccc3[nH]cnc3c2)n2ccnc2)c1` (stereo not drawn) [Liarozole hydrochloride], above 50 µM.
`Nc1nc2c(c(=O)[nH]1)N(C=O)C(CNc1ccc(C(=O)N[C@@H](CCC(=O)O)C(=O)O)cc1)CN2` (stereo partly drawn) [Calcium folinate pentahydrate] yielded a CC50 at 24 h (AC50 (uM) modified / 1000) above 20 µM.
Same read-out and setting: in the case of `CN(C)C=O` [N,N-Dimethylformamide] it was above 90 µM; in that of `CCCCCC1Nc2cc(C(F)(F)F)c(S(N)(=O)=O)cc2S(=O)(=O)N1` (stereo not drawn) [Penflutizide], above 50 µM; in that of `CCCCCC` [n-Hexane], above 90 µM.
As to `CCCOC(=O)c1ccccc1C(=O)OCCC` [Dipropyl phthalate], the CC50 at 24 h (AC50 (uM) modified / 1000) was above 90 µM.
Still for that read-out and setting: in the case of `N#Cc1c[nH]cc1-c1cccc2c1OC(F)(F)O2` [Fludioxonil] it was 35.9 µM.
Still for that read-out and setting: under `C1=COCCC1` [3,4-Dihydro-2H-pyran] stands above 90 µM.
